Values after ≈ are worked out from the molar mass of the structure shown. Where two headings read alike, the source gives them in different places.
Assays:
[1] = biological target: CYP450 2C9 (Homo sapiens, UniProt P11712); test: CYP450 2C9 inhibition; type: in vitro ADME
[2] = Metabolic stability in human liver microsomes; type: in vitro ADME
[3] = biological target: CYP450 3A4 (Homo sapiens, UniProt P08684); test: CYP450 3A4 inhibition; type: in vitro ADME
[4] = Aqueous solubility; type: physicochemical; details: aqueous medium (not further specified)
[5] = Metabolic stability, mouse; type: in vitro ADME
[6] = biological target: T1, Human Glucokinase (Homo sapiens, UniProt P35557); test: Glucokinase tandem enzymatic assay (human GK); type: biochemical
T1 construct: Full-length human hepatic GK (untagged) was expressed; made in house; host or cells: E. coli BL21 STAR (DE3)pLysS
T1 sequence (P35557 1-466 isoform P35557-2): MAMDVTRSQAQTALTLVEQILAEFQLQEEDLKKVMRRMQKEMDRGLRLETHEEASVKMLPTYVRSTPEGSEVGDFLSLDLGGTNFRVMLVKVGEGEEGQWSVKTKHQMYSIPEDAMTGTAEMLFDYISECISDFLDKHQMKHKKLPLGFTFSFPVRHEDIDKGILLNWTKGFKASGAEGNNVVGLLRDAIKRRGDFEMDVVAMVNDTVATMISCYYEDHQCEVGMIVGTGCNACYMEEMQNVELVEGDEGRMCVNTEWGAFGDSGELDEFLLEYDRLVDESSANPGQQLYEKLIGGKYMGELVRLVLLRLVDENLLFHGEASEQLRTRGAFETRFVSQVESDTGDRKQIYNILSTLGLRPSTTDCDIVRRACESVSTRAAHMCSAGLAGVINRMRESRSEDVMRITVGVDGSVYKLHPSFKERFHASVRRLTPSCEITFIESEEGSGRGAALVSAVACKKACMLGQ
Method: Enzymatic activity of human glucokinase (GK) was measured by incubating GK, ATP, and glucose for discrete time periods followed by quenching with EDTA (ethylenediamine tetra-acetic acid). Relative amounts of product glucose-6-phosphate (G6P) were measured by then running a detection assay using G6P dehydrogenase and measuring the conversion of ThioNAD (thio-nicotinamide adenine dinucleotide) to ThioNADH (thio-dihydronicotinamide adenine dinucleotide) at a wavelength of 405 nm. This “uncoupled” enzymatic reaction is denoted as the GK “tandem” assay. Activation of GK by the compound can be assessed using this assay. The GK tandem assay protocol described below was followed using a range of activator compound concentrations from 0 to 100 μM at 5 and 12 mM of glucose. Human full-length glucokinase (GK, 15 nM) was incubated with 5 or 12 mM glucose in a 384 well black microtiter plate with a clear bottom. To initiate the GK reaction, magnesium-ATP (3 mM final concentration) was added to GK in buffer (final buffer conditions of 25 mM HEPES buffer, pH 7.1, containing 1 mM dithiothreitol and 5% DMSO). The total reaction volume was 20 μL. The reaction was allowed to proceed for ten minutes and was then quenched with 5 μL EDTA; 45 mM final). The components of the detection reaction, ThioNAD and G6PDH (glucose-6-phosphate dehydrogenase) (final concentrations of 650 μM and 3.33 Units, respectively), were then added together in a volume of 25 μL, (to give a total volume of 50 μL). Absorbance measurements were made at 405 nm on a SPECTRAMAX® Plus 384 absorbance plate reader (Molecular Devices). Absorbance was read, background glucose-6-phosphate levels were subtracted, after which activation was calculated as a percentage of control activity. Control activity was determined using GK in the presence of vehicle (DMSO), with background glucose-6-phosphate subtracted. Background glucose-6-phosphate was determined by pre-quenching GK with EDTA prior to reaction initiation with ATP. […]

[7] = biological target: CYP450 2D6 (Homo sapiens, UniProt P10635); test: CYP450 2D6 inhibition; type: in vitro ADME
Sequence of CYP450 2D6 (P10635 whole entry): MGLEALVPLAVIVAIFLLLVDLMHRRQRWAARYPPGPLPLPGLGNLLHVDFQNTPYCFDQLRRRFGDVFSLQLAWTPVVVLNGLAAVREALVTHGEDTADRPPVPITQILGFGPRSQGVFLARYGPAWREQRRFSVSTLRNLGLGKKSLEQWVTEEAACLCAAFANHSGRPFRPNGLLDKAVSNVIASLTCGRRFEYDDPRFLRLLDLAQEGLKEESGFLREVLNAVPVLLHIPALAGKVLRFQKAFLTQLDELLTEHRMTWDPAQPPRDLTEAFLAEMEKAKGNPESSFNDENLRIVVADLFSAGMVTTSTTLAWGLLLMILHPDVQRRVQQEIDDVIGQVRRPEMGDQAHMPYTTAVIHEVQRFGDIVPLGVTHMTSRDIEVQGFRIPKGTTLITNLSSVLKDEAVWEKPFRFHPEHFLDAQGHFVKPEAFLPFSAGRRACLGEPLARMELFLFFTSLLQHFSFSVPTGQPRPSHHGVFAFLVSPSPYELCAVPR

[8] = biological target: T2, CYP450 2C8 (Homo sapiens, UniProt P10632); test: CYP450 2C8 inhibition; type: in vitro ADME
T2 sequence (P10632 1-490): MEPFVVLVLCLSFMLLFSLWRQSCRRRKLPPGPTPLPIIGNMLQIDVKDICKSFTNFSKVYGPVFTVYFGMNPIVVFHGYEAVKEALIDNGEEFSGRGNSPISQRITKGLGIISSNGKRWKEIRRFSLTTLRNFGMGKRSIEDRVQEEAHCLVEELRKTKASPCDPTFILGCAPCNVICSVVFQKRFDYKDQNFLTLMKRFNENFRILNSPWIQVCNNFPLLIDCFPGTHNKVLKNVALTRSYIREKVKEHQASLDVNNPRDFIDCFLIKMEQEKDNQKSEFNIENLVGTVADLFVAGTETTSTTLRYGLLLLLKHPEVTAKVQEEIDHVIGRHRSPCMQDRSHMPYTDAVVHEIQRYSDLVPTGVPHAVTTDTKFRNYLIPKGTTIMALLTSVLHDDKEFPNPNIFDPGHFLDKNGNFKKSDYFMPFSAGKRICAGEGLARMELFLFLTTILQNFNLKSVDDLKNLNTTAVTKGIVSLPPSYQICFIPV

[9] = biological target: T3, Mouse Glucokinase (Mus musculus, UniProt P52792); test: Glucokinase activation, mouse GK; type: biochemical
T3 sequence (P52792 1-465): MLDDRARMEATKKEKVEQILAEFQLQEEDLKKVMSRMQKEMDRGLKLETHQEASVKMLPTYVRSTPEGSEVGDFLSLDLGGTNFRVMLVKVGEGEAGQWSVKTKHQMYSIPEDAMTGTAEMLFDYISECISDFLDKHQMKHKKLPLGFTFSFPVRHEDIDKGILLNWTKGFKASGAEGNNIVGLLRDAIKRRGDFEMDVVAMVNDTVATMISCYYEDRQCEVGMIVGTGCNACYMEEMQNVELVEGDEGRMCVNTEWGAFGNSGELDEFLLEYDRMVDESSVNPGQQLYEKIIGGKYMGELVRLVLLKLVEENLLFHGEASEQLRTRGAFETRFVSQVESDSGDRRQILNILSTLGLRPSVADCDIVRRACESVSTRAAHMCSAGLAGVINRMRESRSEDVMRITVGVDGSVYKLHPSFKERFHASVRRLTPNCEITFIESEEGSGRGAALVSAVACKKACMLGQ

[10] = Pharmacokinetic study in mice (plasma and liver); type: in vivo; details: male, C57BL/6J, mouse, C57/B16J mice, 10 mg/kg oral
Method: Pharmacokinetic (PK) screening studies were carried out by methods known to one of ordinary skill in the art. For example, study compounds were administered orally to male C57 Black6j (C57B16J) mice (N=3 per time point) at 10 mg/kg as solutions in a PEG400/Cremphor EL/water (40/10/50) vehicle. The mice were fasted overnight prior to the PK study. Blood samples were taken at 0.5, 1, 2, and 4 hr post dose by cardiac bleeding. Blood samples (˜0.2 mL) were added with K2EDTA and centrifuged at 4° C. (1500-2000×g) to obtain plasma. Liver samples (N=3) were collected at 1 hr post dose. The liver tissues were homogenized with 3 volumes of water to form uniform homogenates. Both plasma and liver samples were stored at −20° C. before they were analyzed by LC/MS/MS. The plasma AUC were calculated using linear and log trapezoidal summations. The liver-to-plasma (L/P) ratio was calculated by dividing the total concentration in liver with plasma concentrations for respective mice. The average of L/P ratios from 3 mice was reported together with the standard deviation.

[11] = biological target: T4, CYP450 1A2 (Homo sapiens, UniProt P05177); test: CYP450 1A2 inhibition; type: in vitro ADME
T4 sequence (P05177 1-516): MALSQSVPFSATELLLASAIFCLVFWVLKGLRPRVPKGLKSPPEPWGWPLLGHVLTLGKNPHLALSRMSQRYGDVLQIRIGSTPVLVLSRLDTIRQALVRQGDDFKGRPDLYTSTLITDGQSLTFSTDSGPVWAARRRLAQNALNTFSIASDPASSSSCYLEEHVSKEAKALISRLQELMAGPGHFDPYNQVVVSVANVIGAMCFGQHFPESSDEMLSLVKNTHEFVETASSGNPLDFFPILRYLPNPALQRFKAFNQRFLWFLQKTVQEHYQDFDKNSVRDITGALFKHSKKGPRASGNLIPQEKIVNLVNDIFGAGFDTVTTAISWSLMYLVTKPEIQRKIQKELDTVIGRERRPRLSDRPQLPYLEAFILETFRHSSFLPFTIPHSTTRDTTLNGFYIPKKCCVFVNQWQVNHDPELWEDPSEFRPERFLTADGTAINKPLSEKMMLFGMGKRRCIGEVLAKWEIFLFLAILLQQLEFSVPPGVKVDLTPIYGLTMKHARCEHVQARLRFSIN

[12] = system: male DIO (diet-induced obese) C57BL/6J mice; test: Oral glucose tolerance test (OGTT) in DIO mice; type: in vivo, mouse
Method: Oral glucose tolerance tests were carried out on male DIO (diet-induced obese) C57BL/6J mice fed a high fat diet (60% kcal from fat) for 26 weeks prior to experimentation. Mice were fasted overnight before use for experiments. A test compound or vehicle (either: 1) 40% PEG 400+10% Cremophore+50% water or 2) 10% dimethyl acetamide+10% ethanol+10% Cremophore+70% water) was given orally 60 min before oral administration of a glucose solution at a dose of 2 g/kg body weight (oral glucose tolerance test; OGTT). Blood glucose levels were measured from tail-bled samples taken at different time points before and after administration of glucose (time course of 2 hours). A time curve of the blood glucose was generated and the change from baseline area-under-the curve (ΔAUC) from 0-120 min was calculated (the time glucose administration being time zero).

[13] = biological target: CYP450 2C19 (Homo sapiens, UniProt P33261); test: CYP450 2C19 inhibition; type: in vitro ADME
Sequence of CYP450 2C19 (P33261 whole entry): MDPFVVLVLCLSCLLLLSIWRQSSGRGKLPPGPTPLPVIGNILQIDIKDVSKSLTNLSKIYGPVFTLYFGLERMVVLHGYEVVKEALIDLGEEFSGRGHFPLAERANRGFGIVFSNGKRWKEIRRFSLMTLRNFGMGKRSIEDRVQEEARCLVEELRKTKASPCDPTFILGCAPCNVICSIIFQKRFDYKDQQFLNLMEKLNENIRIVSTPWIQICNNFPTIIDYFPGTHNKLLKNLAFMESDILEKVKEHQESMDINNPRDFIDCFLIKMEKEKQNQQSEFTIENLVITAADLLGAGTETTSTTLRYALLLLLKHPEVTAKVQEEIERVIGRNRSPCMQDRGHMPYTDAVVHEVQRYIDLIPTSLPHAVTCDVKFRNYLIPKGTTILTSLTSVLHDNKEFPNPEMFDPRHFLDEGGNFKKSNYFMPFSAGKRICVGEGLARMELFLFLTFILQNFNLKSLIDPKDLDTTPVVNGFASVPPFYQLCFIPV

Sequence of CYP450 3A4 (P08684 whole entry): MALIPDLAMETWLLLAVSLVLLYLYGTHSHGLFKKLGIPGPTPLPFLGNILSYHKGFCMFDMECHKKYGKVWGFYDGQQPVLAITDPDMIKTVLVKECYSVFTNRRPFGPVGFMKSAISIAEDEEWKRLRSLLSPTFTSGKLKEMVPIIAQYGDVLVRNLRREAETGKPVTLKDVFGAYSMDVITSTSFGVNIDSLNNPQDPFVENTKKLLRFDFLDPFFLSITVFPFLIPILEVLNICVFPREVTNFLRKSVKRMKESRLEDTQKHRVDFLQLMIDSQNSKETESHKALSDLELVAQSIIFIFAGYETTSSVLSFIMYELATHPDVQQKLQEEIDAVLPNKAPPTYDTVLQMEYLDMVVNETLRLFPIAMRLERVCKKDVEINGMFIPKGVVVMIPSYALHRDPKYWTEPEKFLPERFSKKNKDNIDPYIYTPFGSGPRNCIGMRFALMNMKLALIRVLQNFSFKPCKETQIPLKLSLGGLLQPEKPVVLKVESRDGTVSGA
Sequence of CYP450 2C9 (P11712 whole entry): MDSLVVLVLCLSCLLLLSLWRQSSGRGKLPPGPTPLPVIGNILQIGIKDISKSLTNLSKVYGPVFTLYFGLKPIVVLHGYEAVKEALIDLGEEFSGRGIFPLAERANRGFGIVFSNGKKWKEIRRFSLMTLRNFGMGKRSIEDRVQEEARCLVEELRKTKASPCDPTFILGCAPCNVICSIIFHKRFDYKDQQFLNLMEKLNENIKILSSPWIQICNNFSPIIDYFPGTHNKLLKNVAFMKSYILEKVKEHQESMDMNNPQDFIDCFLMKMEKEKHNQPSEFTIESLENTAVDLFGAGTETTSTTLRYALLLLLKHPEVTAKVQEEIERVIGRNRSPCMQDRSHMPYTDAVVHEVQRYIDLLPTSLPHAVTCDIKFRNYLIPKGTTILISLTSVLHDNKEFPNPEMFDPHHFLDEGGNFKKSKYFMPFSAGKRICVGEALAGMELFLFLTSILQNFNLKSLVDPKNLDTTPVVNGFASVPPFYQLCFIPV

Compound: CC[C@@H](COC)Oc1cc(Oc2ccc(S(C)(=O)=O)nc2)cc(C(=O)Nc2nc(CP3(=O)OCCCO3)cs2)c1 [Example 1, 3-(((1S)-1-(methoxymethyl)propyl)oxy)-5-((6-(methylsulfonyl)-3-pyridinyl)oxy)-N-(4-((2-oxido-1,3,2-dioxaphosphinan-2-yl)methyl)-1,3-thiazol-2-yl)benzamide]
- IC50 [1]: 26.8 µM
- Metabolic Stability Human Liver Microsomes (0.5 μM) [2]: 80%
- IC50 [3]: > 40 µM
- solubility [4]: 74 µg/mL (≈ 121 µM)
- Metabolic Stability Mouse (0.5 μM) [5]: 92%
- EC50 [6]: 0.036 µM
- IC50 [6]: 0.095 µM
- Emax ([6]; read-out: Human Glucokinase Ymax (maximal activation)): 194%
- IC50 [7]: > 40 µM
- IC50 [8]: 24.6 µM
- EC50 [9]: 0.037 µM
- Emax ([9]; read-out: Mouse Glucokinase Ymax (maximal activation)): 194%
- Kp at 1 h ([10]; liver/plasma, po, 10 mg/kg, read-out: Liver/Plasma ratio): ~39
- AUC(0-t) ([10]; plasma, 0-4 hr): 1.53 µM·h
- concentration at 0.5 h ([10]; plasma, 0.5 hr post dose): 604 ± 234 nM
- concentration at 1 h ([10]; plasma, 1 hr post dose, read-out: Plasma (1 hr)): 631 ± 286 nM
- concentration at 2 h ([10]; plasma, 2 hr post dose): 398 ± 193 nM
- concentration at 4 h ([10]; plasma, 4 hr post dose): 193 ± 133 nM
- concentration at 1 h ([10]; liver concentration 1 hr post dose, read-out: Liver (1 hr)): 21600 ± 1360 nM
- IC50 [11]: > 40 µM
- reduction in glucose AUC (after an oral glucose tolerance test in diet-induced obese mice) ([12]; 10 μmol/kg dose): 47%
- Glucose lowering (AUC) (120 min) ([12]; OGTT, DIO mice, oral dose 10 μmol/kg, AUC 0-120 min): −47%
- IC50 [13]: > 40 µM

— patent US10604541B2, “Glucokinase activators and methods of using same” (BRISTOL-MYERS SQUIBB COMPANY, priority 2016, dated 2020)
